Here are results for 22 molecules from PubChem BioAssay (NCI).

“And” between values parts separate entries of the source, which are not always exact repeats. Equal values may be shown once.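 All cell lines were grown in 96-well plates and treated with compound for 48 hours. GI50 marks 50% less growth. TGI marks complete inhibition of growth.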 Some results are limits rather than exact numbers.

In the first experiment the test system is MDA-MB-231 breast. As to the kind of experiment: NCI anticancer screen, dose series, 48 h.
Molecule `CCOC(=O)[C@]1(OC(C)=O)C[C@H](OC(C)=O)[C@@H](C(F)COP(=O)(OCc2ccccc2)OCc2ccccc2)O1` (stereo not given in full) came in with a TGI above 100 µM.
For the molecule `CC[C@@]1(O)C[C@H](OC2CC(N(C)C)C(O)C(C)O2)c2c(O)c3c(c(O)c2[C@H]1OC1CC(N(C)C)C(O)C(C)O1)C(=O)c1cccc(O)c1C3=O` (stereo not given in full), the GI50 is below 0.01 µM.
As for `CC1(C)CCc2c(c3c(c4c(=O)c(O)c(-c5ccc(O)cc5)oc24)OC(C)(C)CC3)O1`, the GI50 is 28.3 µM and the TGI amounted to 84.1 µM.
The corresponding values for `O=C(Nc1ccccc1)NS(=O)(=O)c1ccc(-n2nc3c(c2-c2cccs2)Cc2ccccc2-3)cc1` are 15.3 µM and 60.8 µM.
`CCCCCN(CCCCC)CC(O)c1cc(C)c2ccc3cc(C(C)C)ccc3c2c1` (stereo not given): the GI50 is 1.79 µM and the TGI is 3.77 µM.
The corresponding values for `CC(C)CCC[C@@H](C)[C@H]1CC[C@H]2[C@@H]3CC=C4C[C@@H](C(C(=O)O)C(=O)O)CC[C@]4(C)[C@H]3CC[C@]12C` are 0.214 µM and 0.838 µM.
The corresponding values for `COc1ccc(-c2nc3sccn3c2/C(N)=N/C(=N)N)cc1OC` are 17.8 µM and 39.3 µM.
The corresponding values for `CC1=C(C(=O)Nc2ccc(Cl)c(Cl)c2)C(c2cccc(Oc3ccccc3)c2)NC(=S)N1` (stereo not given) are 8.69 µM and 16.6 µM.
In the case of `Nc1ccccc1SC(C[N+](=O)[O-])c1ccc2c(c1)OCO2` (stereo not given), the TGI is 20 µM.
With `COC1=CC(c2ccc[nH]2)=N/C1=C\c1[nH]c(C)c(C(=O)OC(C)C)c1C`, the GI50 was 0.0252 µM and the TGI was found to be 0.274 µM.
The corresponding values for `CC/C=C\CCC/C=C1/C(=O)C=C[C@@H]1C/C=C\CCCC(=O)OC` are 4.23 µM and 14.9 µM.
The corresponding values for `COC1=CC(=O)c2nc(-c3ccncc3)[nH]c2C1=O` are above 100 µM and above 100 µM.
The corresponding values for `NC(=O)c1cccc2cn(-c3ccc([C@@H]4CCCNC4)cc3)nc12` are 11.7 µM and 31.2 µM.
As to `c1ccc2cc(-c3cc(-c4cc(-c5ccc6ccccc6c5)on4)no3)ccc2c1`, the TGI was above 100 µM.
For the molecule `O=C(Nc1ccc(Cl)c(Cl)c1)Nc1ccc(Cl)c(Cl)c1`, the GI50 was 1.63 µM and 1.73 µM; the TGI is 3.79 µM and 3.7 µM.
Turning to `COc1ccc2c(c1)/C(=C/c1c(C)nc3sc(C)nn13)C(=O)N2`, the GI50 is 7.59 µM and the TGI is above 100 µM.
As to `C=C(CN1CCN(c2ccc(Cl)cc2F)CC1)c1ccc(C(=O)Nc2ccccc2N)cc1`, the GI50 is 0.536 µM and the TGI worked out at 3.64 µM.
On to `Cc1ccc(NC2=C(Cl)C(=O)N(Cc3ccccc3)C2=O)cc1O`, for which the GI50 was 21 µM and the TGI was 61.5 µM.
The corresponding values for `CCCCOC(=O)C1OC(O[C@H]2CCC3(C)C(CCC4(C)C3CC=C3C5CC(C)(C)CCC5(C(=O)O)CC[C@]34C)C2(C)C)C(OC2OC(CO)C(O)C(O)C2O)C(OC2OC(CO)C(O)C(O)C2O)C1O` (stereo not given in full) are 14.5 µM and 32.2 µM.
As to `COc1cc(Cc2cnc(/N=C3\C(=O)N(CN4CCN(c5c(F)cc6c(=O)c(C(=O)O)cn(C7CC7)c6c5OC)CC4C)c4ccc(F)cc43)nc2N)cc(OC)c1OC` (stereo not given), the GI50 was 11.8 µM and the TGI turned out to be 30.3 µM.
The corresponding values for `O=C1/C(=C/c2cccc([N+](=O)[O-])c2)COc2ccc(O)cc21` are 2.07 µM and 4.75 µM.
On to `NNC(=O)Nc1cccnc1`, for which the TGI is above 100 µM.

A further experiment has as its system DU-145 prostate. The experiment can be described thus: NCI anticancer screen, dose series, 48 h.
`CCOC(=O)[C@]1(OC(C)=O)C[C@H](OC(C)=O)[C@@H](C(F)COP(=O)(OCc2ccccc2)OCc2ccccc2)O1` (stereo not given in full): the TGI was above 100 µM.
`CC[C@@]1(O)C[C@H](OC2CC(N(C)C)C(O)C(C)O2)c2c(O)c3c(c(O)c2[C@H]1OC1CC(N(C)C)C(O)C(C)O1)C(=O)c1cccc(O)c1C3=O` (stereo not given in full): the GI50 was below 0.01 µM and the TGI was determined as 11.3 µM.
The corresponding values for `CC1(C)CCc2c(c3c(c4c(=O)c(O)c(-c5ccc(O)cc5)oc24)OC(C)(C)CC3)O1` are 85.1 µM and above 100 µM.
The corresponding values for `O=C(Nc1ccccc1)NS(=O)(=O)c1ccc(-n2nc3c(c2-c2cccs2)Cc2ccccc2-3)cc1` are 28.6 µM and 96.2 µM.
On to `CCCCCN(CCCCC)CC(O)c1cc(C)c2ccc3cc(C(C)C)ccc3c2c1` (stereo not given), for which the GI50 was 1.89 µM and the TGI turned out to be 3.37 µM.
The corresponding values for `CC(C)CCC[C@@H](C)[C@H]1CC[C@H]2[C@@H]3CC=C4C[C@@H](C(C(=O)O)C(=O)O)CC[C@]4(C)[C@H]3CC[C@]12C` are 0.115 µM and 0.274 µM.
Take `COc1ccc(-c2nc3sccn3c2/C(N)=N/C(=N)N)cc1OC`: the GI50 was 52.4 µM and the TGI is above 100 µM.
For the molecule `CC1=C(C(=O)Nc2ccc(Cl)c(Cl)c2)C(c2cccc(Oc3ccccc3)c2)NC(=S)N1` (stereo not given), the GI50 was 6.88 µM and the TGI was 13.3 µM.
The molecule `Nc1ccccc1SC(C[N+](=O)[O-])c1ccc2c(c1)OCO2` (stereo not given) came in with a TGI of 8.77 µM.
Take `COC1=CC(c2ccc[nH]2)=N/C1=C\c1[nH]c(C)c(C(=O)OC(C)C)c1C`: the GI50 is 0.0609 µM and the TGI was 6.47 µM.
The corresponding values for `CC/C=C\CCC/C=C1/C(=O)C=C[C@@H]1C/C=C\CCCC(=O)OC` are 8.67 µM and 21.1 µM.
Regarding `COC1=CC(=O)c2nc(-c3ccncc3)[nH]c2C1=O`, the GI50 was above 100 µM and the TGI was above 100 µM.
With `NC(=O)c1cccc2cn(-c3ccc([C@@H]4CCCNC4)cc3)nc12`, the GI50 is 8.97 µM and the TGI came out at 21.9 µM.
As to `c1ccc2cc(-c3cc(-c4cc(-c5ccc6ccccc6c5)on4)no3)ccc2c1`, the TGI was above 100 µM.
`O=C(Nc1ccc(Cl)c(Cl)c1)Nc1ccc(Cl)c(Cl)c1`: the GI50 is 4.03 µM and 4.34 µM; the TGI is 14.4 µM and 16.2 µM.
In the case of `COc1ccc2c(c1)/C(=C/c1c(C)nc3sc(C)nn13)C(=O)N2`, the GI50 was 6.11 µM and the TGI was above 100 µM.
In the case of `C=C(CN1CCN(c2ccc(Cl)cc2F)CC1)c1ccc(C(=O)Nc2ccccc2N)cc1`, the GI50 is 3.14 µM and the TGI is above 100 µM.
For `Cc1ccc(NC2=C(Cl)C(=O)N(Cc3ccccc3)C2=O)cc1O`, the GI50 was 60.1 µM and the TGI was above 100 µM.
The corresponding values for `O=C1/C(=C/c2cccc([N+](=O)[O-])c2)COc2ccc(O)cc21` are 2 µM and 4.26 µM.
As for `NNC(=O)Nc1cccnc1`, the TGI was above 100 µM.

For another experiment, the system named is MCF7 breast. The experiment can be described thus: NCI anticancer screen, dose series, 48 h.
Regarding `CCOC(=O)[C@]1(OC(C)=O)C[C@H](OC(C)=O)[C@@H](C(F)COP(=O)(OCc2ccccc2)OCc2ccccc2)O1` (stereo not given in full), the GI50 is 20.8 µM and > 100 µM; the TGI was 45.6 µM and > 100 µM.
`CC[C@@]1(O)C[C@H](OC2CC(N(C)C)C(O)C(C)O2)c2c(O)c3c(c(O)c2[C@H]1OC1CC(N(C)C)C(O)C(C)O1)C(=O)c1cccc(O)c1C3=O` (stereo not given in full): the GI50 was below 0.01 µM; the TGI was 0.381 µM and 0.0743 µM.
As to `CC1(C)CCc2c(c3c(c4c(=O)c(O)c(-c5ccc(O)cc5)oc24)OC(C)(C)CC3)O1`, the GI50 was above 100 µM and the TGI was above 100 µM.
Regarding `O=C(Nc1ccccc1)NS(=O)(=O)c1ccc(-n2nc3c(c2-c2cccs2)Cc2ccccc2-3)cc1`, the GI50 is 13.4 µM and the TGI was above 100 µM.
Take `CCCCCN(CCCCC)CC(O)c1cc(C)c2ccc3cc(C(C)C)ccc3c2c1` (stereo not given): the GI50 was 1.75 µM and the TGI amounted to 3.48 µM.
The corresponding values for `CC(C)CCC[C@@H](C)[C@H]1CC[C@H]2[C@@H]3CC=C4C[C@@H](C(C(=O)O)C(=O)O)CC[C@]4(C)[C@H]3CC[C@]12C` are 0.386 µM and 5.37 µM.
On to `COc1ccc(-c2nc3sccn3c2/C(N)=N/C(=N)N)cc1OC`, for which the GI50 was 56.9 µM and the TGI was above 100 µM.
`Nc1ccccc1SC(C[N+](=O)[O-])c1ccc2c(c1)OCO2` (stereo not given) had a TGI of 12.4 µM.
